“And” between values parts separate entries of the source, which are not always exact repeats. Identical values can stand only once.
Key:
[1] = Perilymph Conc. listed for agents (Tables 14-25)
[2] = Stability of reconstituted higher concentration formulation at 2-8° C. for 8 hours (Table D); assay type: physicochemical; conditions: Post Lyo
[3] = Stability of the non-lyophilized test composition under refrigeration (Example 13); assay type: physicochemical; conditions: freshly compounded test composition, refrigerator, 0 to 120 hours
[4] = Storage stability of the lyophilized test composition (Table 27); assay type: physicochemical
Method: The lyophilized composition was stored in a glass container with rubber closure and crimp seal under refrigeration for 6 months and at −20° C. for 24 months.

[5] = Stability of the filtered solution prior to lyophilization by HPLC (Example 2); assay type: physicochemical; conditions: room temperature
Method: Stability Analysis: Prior to lyophilization, the stability of the filtered solution was analyzed by HPLC. The solution was held at room temperature for 4 hours, and samples of the solution was analyzed by HPLC during the period of time. […] Further, about 100% of sodium valproate remained in the solution.

[6] = Order of compounding of the test composition (Example 11, Table 26); assay type: physicochemical; conditions: organic solvents
Method: The first step in the sequence of compounding was to add pre-weighed solid sodium valproate to the stock P407 aqueous solution over ice. The temperature of P407 solution is important to keep the viscosity of this thermoreversible polymer in a liquid free-flowing state. After a clear solution was obtained, the CHIR99021-DMSO stock solution was added slowly to the NaVPA-P407-water solution. […] CHIR99021 also begins to degrade after extended periods of time in solution.

[7] = Stability of the reconstituted test composition in refrigerated syringes (Example 13); assay type: physicochemical; conditions: for time assay levels remained stable with initial levels: reconstituted test composition in polypropylene syringes, refrigerated
[8] = molecular target: T1, KDM1b (Homo sapiens, UniProt Q8NB78); conditions: Table 18; read-out: Select KDM1b; cited from earlier work
T1 sequence (Q8NB78 1-822): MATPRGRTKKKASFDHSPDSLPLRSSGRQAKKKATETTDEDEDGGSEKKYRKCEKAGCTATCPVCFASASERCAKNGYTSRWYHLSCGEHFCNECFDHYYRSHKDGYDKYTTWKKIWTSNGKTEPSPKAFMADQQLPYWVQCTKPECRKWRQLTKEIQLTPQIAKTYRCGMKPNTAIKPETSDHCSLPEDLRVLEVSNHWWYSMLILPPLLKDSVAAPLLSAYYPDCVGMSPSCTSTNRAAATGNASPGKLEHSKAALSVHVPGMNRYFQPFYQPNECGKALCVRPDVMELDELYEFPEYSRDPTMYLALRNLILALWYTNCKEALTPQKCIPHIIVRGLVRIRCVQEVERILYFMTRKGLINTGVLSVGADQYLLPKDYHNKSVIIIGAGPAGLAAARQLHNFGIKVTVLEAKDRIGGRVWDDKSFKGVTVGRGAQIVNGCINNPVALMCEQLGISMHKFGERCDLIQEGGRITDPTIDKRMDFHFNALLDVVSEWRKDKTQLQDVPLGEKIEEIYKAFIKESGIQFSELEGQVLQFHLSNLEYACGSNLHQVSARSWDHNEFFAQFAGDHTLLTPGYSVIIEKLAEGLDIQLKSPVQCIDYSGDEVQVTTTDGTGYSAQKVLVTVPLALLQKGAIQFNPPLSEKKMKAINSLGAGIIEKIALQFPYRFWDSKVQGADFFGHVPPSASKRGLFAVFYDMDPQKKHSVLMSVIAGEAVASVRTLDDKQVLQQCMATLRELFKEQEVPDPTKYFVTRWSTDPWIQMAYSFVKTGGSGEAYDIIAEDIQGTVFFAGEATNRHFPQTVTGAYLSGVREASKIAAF

[9] = molecular target: LSD1 (Homo sapiens, UniProt O60341); conditions: Table 18; read-out: Literat. Cell EC50; cited from earlier work
[10] = tested on: Lgr5+ cells; test: Lgr5+ Assay (Lgr5+ cell assay in vitro); assay type: cell-based
[11] = Table 18; cited from earlier work
[12] = molecular target: GSK-3 alpha (Homo sapiens, UniProt P49840); conditions: cited from earlier work
[13] = molecular target: GSK-3 beta (Homo sapiens, UniProt P49841); conditions: cited from earlier work
[14] = molecular target: HER4 (Homo sapiens, UniProt Q15303); conditions: cited from earlier work
[15] = assay type: physicochemical; conditions: lyophilized composition (Dosage 1) stored at 5° C., room temperature or 40° C. under 75% relative humidity in the dark
Method: Stability Analysis: The stability of the lyophilized composition formulation (Dosage 1) was analyzed upon storage at 5° C., room temperature, or 40° C. under 75% relative humidity in the dark Samples were taken at various time points, reconstituted as described in Example 4 and samples analyzed by HPLC. […] About 100% of sodium valproate remained.
Long-term stability of the lyophilized composition formulation (Dosage 1) was tested. The composition was held at room temperature (ambient) in the dark for two months and reconstituted as described in Example 4 below.

[16] = tested on: HDAC; conditions: Mechanism HDAC Inhib 1, 2, 3, 8; cited from earlier work
[17] = Reconstitution time of lyophilized compositions (Tables E, 28, 35); assay type: physicochemical
Method: Diluent 1, 0.85 mL+lyophilized cake. […] Gentle tapping on the exterior of the vessel to help the cake dissolve in the Diluent may be required while keeping it in fridge (or ice bath). To avoid degradation of the composition, minimize stirring and/or vortexing.
Diluent 1, 0.95 mL+Placebo cake: Using a syringe, add the Diluent to the Placebo cake, and rest in a fridge or ice bath (2-8° C.) for 60 minutes or until clear solution is formed. Gentle tapping on the exterior of the vessel to help the cake dissolve in the Diluent may be required while keeping it in fridge (or ice bath). To avoid degradation of the composition, minimize stirring and/or vortexing.
Powder P407 (i.e. non-lyophilized) can be obtained from BASF.
Reconstitution of lyophilized P407 (Placebo) and powder P407 was done using 850 μL Diluent (see above for example preparations of a Diluent) in a vial.
Therefore, to probe the effect of salts other than sodium valproate on reconstitution time, a poloxamer solution at 16.15% concentration either alone or including a salt (e.g. an inorganic salt or organic acid salt) at a concentration of 533.25 mM, was lyophilized. The lyophilized material was then reconstituted using Diluent for reconstitution (6.4% DMSO by wt. % in water) or with water.
Building on the results of Examples 14 to 16, further lyophilized compositions were manufactured and had their reconstitution times evaluated. […] The further lyophilized compositions were made in accordance with Example 10, and reconstituted in accordance with Example 12.

[18] = tested on: MAOs A and B; conditions: Table 18, one value, isoform not told; read-out: Select MAOs A and B; cited from earlier work
[19] = molecular target: ErbB3/HER3 (Homo sapiens, UniProt P21860); conditions: read-out: HER 3 pKi or IC50 (converted); cited from earlier work
[20] = Table 14, listed concentration, no test described
[21] = lyophilized composition GMP lot B17030018, Refrigerated, 1 month
[22] = lyophilized composition GMP lot B17030018, Refrigerated, 2 months
[23] = lyophilized composition GMP lot B17030018, Refrigerated, 3 months
[24] = lyophilized composition GMP lot B17030018, Refrigerated, 6 months
[25] = lyophilized composition GMP lot B17030018, Release, 0 month
[26] = lyophilized composition GMP lot B17030018, −20, 1 month
[27] = lyophilized composition GMP lot B17030018, −20, 2 months
[28] = lyophilized composition GMP lot B17030018, −20, 3 months
[29] = lyophilized composition GMP lot B17030018, −20, 6 months
[30] = lyophilized composition GMP lot B17030018, −20, 9 months
[31] = lyophilized composition GMP lot B17030018, −20, 12 months
[32] = lyophilized composition GMP lot B17030018, −20, 18 months
[33] = lyophilized composition GMP lot B17030018, −20, 24 months

HER4, sequence (Q15303 26-1308, species assumed): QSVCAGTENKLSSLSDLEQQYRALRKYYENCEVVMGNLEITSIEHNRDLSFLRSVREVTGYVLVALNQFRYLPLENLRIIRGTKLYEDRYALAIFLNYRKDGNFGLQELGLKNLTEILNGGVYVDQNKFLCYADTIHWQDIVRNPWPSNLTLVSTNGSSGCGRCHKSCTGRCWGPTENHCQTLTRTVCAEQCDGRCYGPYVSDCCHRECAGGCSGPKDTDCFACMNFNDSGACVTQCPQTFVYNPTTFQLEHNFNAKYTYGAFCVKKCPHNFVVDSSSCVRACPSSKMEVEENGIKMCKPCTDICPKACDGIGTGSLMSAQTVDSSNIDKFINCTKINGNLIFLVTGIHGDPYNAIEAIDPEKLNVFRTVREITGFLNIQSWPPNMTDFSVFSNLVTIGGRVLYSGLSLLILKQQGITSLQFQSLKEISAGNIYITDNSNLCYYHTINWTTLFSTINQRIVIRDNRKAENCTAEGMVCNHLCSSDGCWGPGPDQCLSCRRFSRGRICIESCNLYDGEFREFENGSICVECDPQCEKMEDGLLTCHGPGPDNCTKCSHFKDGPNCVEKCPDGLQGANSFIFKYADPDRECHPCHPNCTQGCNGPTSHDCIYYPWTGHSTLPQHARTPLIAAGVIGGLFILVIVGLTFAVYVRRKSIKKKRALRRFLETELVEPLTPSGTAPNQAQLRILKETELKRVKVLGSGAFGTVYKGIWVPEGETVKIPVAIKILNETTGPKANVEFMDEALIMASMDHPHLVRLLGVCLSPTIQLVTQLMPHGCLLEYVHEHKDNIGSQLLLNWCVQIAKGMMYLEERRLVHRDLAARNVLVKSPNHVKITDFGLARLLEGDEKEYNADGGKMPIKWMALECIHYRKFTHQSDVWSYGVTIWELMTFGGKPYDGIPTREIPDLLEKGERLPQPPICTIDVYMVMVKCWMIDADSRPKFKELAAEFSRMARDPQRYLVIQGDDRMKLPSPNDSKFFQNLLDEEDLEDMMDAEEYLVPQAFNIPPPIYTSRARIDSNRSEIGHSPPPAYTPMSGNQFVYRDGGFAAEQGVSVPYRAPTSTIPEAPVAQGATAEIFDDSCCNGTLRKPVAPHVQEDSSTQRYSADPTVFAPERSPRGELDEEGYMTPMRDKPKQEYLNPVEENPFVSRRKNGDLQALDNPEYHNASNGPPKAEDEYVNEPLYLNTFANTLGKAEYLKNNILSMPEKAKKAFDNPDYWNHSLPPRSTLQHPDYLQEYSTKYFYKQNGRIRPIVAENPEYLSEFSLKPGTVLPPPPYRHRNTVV
GSK-3 beta, sequence (P49841 whole entry): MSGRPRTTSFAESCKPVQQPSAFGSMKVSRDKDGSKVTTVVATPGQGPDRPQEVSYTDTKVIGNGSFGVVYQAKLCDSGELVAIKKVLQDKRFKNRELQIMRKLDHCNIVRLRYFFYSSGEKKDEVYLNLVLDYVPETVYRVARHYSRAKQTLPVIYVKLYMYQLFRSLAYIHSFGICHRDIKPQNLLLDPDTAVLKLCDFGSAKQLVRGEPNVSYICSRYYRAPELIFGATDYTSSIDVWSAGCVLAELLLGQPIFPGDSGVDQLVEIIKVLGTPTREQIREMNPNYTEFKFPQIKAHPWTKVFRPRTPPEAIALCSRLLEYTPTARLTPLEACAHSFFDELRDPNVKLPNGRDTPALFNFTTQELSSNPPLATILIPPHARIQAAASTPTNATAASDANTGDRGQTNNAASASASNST
GSK-3 alpha, sequence (P49840 whole entry): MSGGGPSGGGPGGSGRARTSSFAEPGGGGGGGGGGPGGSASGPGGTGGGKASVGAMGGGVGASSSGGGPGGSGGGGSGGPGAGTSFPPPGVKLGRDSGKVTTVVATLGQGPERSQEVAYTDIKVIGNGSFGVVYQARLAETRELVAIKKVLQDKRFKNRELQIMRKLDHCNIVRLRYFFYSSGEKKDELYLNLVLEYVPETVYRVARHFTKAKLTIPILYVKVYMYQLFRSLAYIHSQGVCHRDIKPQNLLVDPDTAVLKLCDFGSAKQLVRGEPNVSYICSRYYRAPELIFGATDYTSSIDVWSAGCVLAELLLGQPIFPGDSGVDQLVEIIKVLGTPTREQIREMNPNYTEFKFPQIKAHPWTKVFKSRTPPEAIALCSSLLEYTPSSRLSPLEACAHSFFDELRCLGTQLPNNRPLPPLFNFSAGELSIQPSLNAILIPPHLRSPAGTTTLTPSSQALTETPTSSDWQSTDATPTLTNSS
ErbB3/HER3, sequence (P21860 20-1342): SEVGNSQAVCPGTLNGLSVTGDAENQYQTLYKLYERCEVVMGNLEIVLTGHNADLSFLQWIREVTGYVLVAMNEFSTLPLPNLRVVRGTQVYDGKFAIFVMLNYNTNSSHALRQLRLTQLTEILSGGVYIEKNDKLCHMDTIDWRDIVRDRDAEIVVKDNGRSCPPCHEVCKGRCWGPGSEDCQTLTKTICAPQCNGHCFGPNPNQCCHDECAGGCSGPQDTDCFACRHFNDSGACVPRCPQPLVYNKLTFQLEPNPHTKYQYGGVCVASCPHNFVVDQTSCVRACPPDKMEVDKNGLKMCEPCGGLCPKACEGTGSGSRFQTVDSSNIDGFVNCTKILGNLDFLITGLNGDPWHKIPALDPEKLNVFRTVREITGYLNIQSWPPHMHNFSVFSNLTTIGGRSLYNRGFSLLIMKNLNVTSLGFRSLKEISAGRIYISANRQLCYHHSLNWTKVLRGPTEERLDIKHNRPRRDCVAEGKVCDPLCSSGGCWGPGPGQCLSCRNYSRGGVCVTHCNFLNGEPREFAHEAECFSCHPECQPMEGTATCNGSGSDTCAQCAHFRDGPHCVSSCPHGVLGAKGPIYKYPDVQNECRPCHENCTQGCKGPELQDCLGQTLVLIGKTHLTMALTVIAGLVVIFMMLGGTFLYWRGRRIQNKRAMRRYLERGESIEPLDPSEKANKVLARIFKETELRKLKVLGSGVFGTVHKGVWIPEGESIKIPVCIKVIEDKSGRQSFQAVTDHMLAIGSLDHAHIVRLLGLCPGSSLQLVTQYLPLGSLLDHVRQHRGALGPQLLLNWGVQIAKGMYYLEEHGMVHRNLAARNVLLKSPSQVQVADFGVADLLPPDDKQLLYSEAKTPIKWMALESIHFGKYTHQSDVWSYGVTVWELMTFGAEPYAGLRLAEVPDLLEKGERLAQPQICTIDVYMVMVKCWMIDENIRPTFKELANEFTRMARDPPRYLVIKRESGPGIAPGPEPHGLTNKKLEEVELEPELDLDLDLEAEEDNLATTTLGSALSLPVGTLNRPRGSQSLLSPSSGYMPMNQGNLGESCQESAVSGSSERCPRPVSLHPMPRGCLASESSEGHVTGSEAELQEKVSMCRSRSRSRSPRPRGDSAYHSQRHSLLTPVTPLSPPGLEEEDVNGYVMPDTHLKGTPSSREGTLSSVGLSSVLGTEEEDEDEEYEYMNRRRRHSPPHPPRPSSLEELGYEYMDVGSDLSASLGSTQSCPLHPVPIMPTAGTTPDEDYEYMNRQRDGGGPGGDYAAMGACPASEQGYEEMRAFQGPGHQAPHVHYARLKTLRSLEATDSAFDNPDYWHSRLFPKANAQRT

Q: What does the source list for `Cc1cnc(-c2cnc(NCCNc3ccc(C#N)cn3)nc2-c2ccc(Cl)cc2Cl)[nH]1` [CHIR99021]?
A: Perilymph Conc [1, 20]: 2 to 6 µM; % Rel Error [2]: 2.2% and 2.4%; Conc. [2]: 3470 µg/mL and 3480 µg/mL; % Rel Error ([2]; 24 Hrs, refrigerator 2-8° C.): −1.3% and 0.6%; Conc. ([2]; 24 Hrs, refrigerator 2-8° C.): 3360 µg/mL and 3420 µg/mL; assay level over time [3]: decreased from its initial level over time; Assay (drug content) [4, 21]: 105%; Assay (drug content) [4, 22]: 105%; Assay (drug content) [4, 23]: 104%; Assay (drug content) [4, 24]: 102%; Assay (drug content) [4, 25]: 103%; Assay (drug content) [4, 26]: 107%; Assay (drug content) [4, 27]: 107%; Assay (drug content) [4, 28]: 104%; Assay (drug content) [4, 29]: 103%; Assay (drug content) [4, 30]: 102%; Assay (drug content) [4, 31]: 99%; Assay (drug content) [4, 32]: 100%; Assay (drug content) [4, 33]: 100%; total impurities formed for CHIR99021 ([5]; over 4 hours): about 4.6%; solubility of CHIR99021 [6]: very limited in almost all organic solvents except polar solvents, such as DMSO; time assay levels remained stable with initial levels [7]: 6 h; decrease of assay level from its initial level ([7]; reconstituted test composition in refrigerated syringes, sometime between 8 and 24 hours): 37%

Q: For `O=C(O)c1ccc(CN2CCC(CN[C@@H]3C[C@H]3c3ccccc3)CC2)cc1` [GSK-2879552], which “Perilymph Conc” value ([1]; Table 18, lower end of range) is on record?
A: ≥ 40 nM-

Q: What about the “Perilymph Conc” value ([1]; Table 18, upper end of range) of the same molecule?
A: ≤ 30 µM

Q: What about the IC50 [8] of the same molecule?
A: 20000 nM

Q: And the EC50 [9]?
A: 2 to 240 nM

Q: What about the “Lgr5+ Assay” value ([10]; Table 18, lower end of concentration range) of the same molecule?
A: ≥ 40 nM-

Q: What about the “Human Plasma Conc” value [11] of the same molecule?
A: 1 to 100 nM

Q: With `O=C1NC(=O)C(c2cnc3ccccn23)=C1c1cn2c3c(cc(F)cc13)CN(C(=O)N1CCCCC1)CC2` [LY2090314, 3-(9-fluoro-2-(piperidine-1-carbonyl)-1,2,3,4-tetrahydro-[1,4]diazepino[6,7,1-hi]indol-7-yl)-4-(imidazo[1,2-a]pyridin-3-yl)-1H-pyrrole-2,5-dione] as the molecule, how does the “Perilymph Conc” value [1, 20] read?
A: 0.005 to 0.02 µM

Q: What about the “Lgr5+ Assay” value ([10]; Table 14) of the same molecule?
A: 5 to 20 nM

Q: What about the GSK-3 alpha [12] of the same molecule?
A: 2.1 nM

Q: What about the GSK-3 beta [13] of the same molecule?
A: 0.9 nM

Q: Which IC50 [14] does the source give for `CNC(=O)CN1CCC(Oc2cc3c(Nc4cccc(Cl)c4F)ncnc3cc2OC)CC1` [Sapitinib/AZD8931/] here?
A: 3 nM

Q: For `CCCC(CCC)C(=O)O` [Sodium Valproate, Sodium 2-propylpentanoate], which sodium valproate remained [15] is on record?
A: About 100%

Q: What about the “Perilymph Conc” value ([1]; HDAC inhibitor table, upper end of the wrapped range 100 uM-4 mM, no test described) of the same molecule?
A: ≤ 4000 µM

Q: What about the “% Rel Error” value [2] of the same molecule?
A: 7.3% and 5.5%

Q: And the “Conc.” value [2]?
A: 102900 µg/mL and 101100 µg/mL

Q: And the “% Rel Error” value ([2]; 24 Hrs, refrigerator 2-8° C.)?
A: 5.3% and 7.5%

Q: And the “Conc.” value ([2]; 24 Hrs, refrigerator 2-8° C.)?
A: 101000 µg/mL and 103100 µg/mL

Q: What about the “assay level over time” value [3] of the same molecule?
A: remained constant over this time

Q: What about the “Assay (drug content)” value [4, 21] of the same molecule?
A: 100%

Q: What about the “Assay (drug content)” value [4, 22] of the same molecule?
A: 100%

Q: What about the “Assay (drug content)” value [4, 23] of the same molecule?
A: 100%

Q: What about the “Assay (drug content)” value [4, 24] of the same molecule?
A: 99%

Q: And the “Assay (drug content)” value [4, 25]?
A: 100%

Q: What about the “Assay (drug content)” value [4, 26] of the same molecule?
A: 101%

Q: And the “Assay (drug content)” value [4, 27]?
A: 100%

Q: And the “Assay (drug content)” value [4, 28]?
A: 100%

Q: What about the “Assay (drug content)” value [4, 29] of the same molecule?
A: 100%

Q: And the “Assay (drug content)” value [4, 30]?
A: 99%

Q: And the “Assay (drug content)” value [4, 31]?
A: 99%

Q: What about the “Assay (drug content)” value [4, 32] of the same molecule?
A: 101%

Q: What about the “Assay (drug content)” value [4, 33] of the same molecule?
A: 98%

Q: What about the “sodium valproate remained in the solution” value ([5]; 4 hours) of the same molecule?
A: about 100%

Q: What about the “HDAC Potenc” value [16] of the same molecule?
A: 39 to 161 µM

Q: And the “Reconstitution time (minutes) water + DMSO” value ([17]; lyophilized 16.15% P407 with salt at 533.25 mM, reconstituted with Diluent ([…] DMSO in water))?
A: 25 min

Q: And the “Reconstitution time (minutes) with water” value ([17]; lyophilized 16.15% P407 with salt at 533.25 mM, reconstituted with water)?
A: 20 min

Q: And the “reconstitution time of lyophilized poloxamer with added organic acid salt” value ([17]; poloxamer 16.15%, salt 533.25 mM)?
A: 420 min

Q: What about the “Lgr5+ Assay” value ([10]; HDAC inhibitor table, upper end of the wrapped range 100 uM-4 mM) of the same molecule?
A: ≤ 4e+06 nM

Q: And the “time assay levels remained stable with initial levels” value [7]?
A: 6 h

Q: What about the assay level ([7]; reconstituted test composition in refrigerated syringes, up to 24 hours) of the same molecule?
A: remained constant over this time

Q: For `N[C@@H]1C[C@H]1c1ccccc1` [TCP], which “Perilymph Conc” value ([1]; Table 18, range or its upper end) is on record?
A: 0.1 to 20 µM

Q: And the IC50 [18]?
A: 1000 nM

Q: What about the “Lgr5+ Assay” value ([10]; Table 18, concentration range or its upper end) of the same molecule?
A: 100 to 20000 nM

Q: What about the “Human Plasma Conc Cmax” value [11] of the same molecule?
A: 0.03 to 0.2 µg/mL

Q: With `CN1CCN(Cc2ccc(NC(=O)Cc3ccc(Oc4cc(NC(=O)C5CC5)ncn4)cc3)cc2C(F)(F)F)CC1` [WS6] as the molecule, how does the IC50 [19] read?
A: 280 nM
